In patent publication US12310944B2 (priority 2019, dated 2025):
Like-named read-outs stand apart in the source and are kept apart here.

Experiments:
PC-12 neural cell line = experiment: Toxicity test in PC-12 nerve cell (MTT); assay type: cell-based; conditions: PC-12 cells; for SR(%) cell survival rate, 20 μM: 20 μM compound for 24 h; for SR(%) cell survival rate, 50 μM: 50 μM compound for 24 h
Protocol: Toxicity Test in PC-12 Nerve Cell:
Drugs and reagents: Test compounds, DMEM medium (01-050-1A) purchased from Biological Industries, FBS fetal bovine serum (04-001-1A) purchased from Biological Industries, MTT thiazolyl blue reagent (KGT525500) purchased from KeyGEN BioTECH.
(§1) Instrument: THERMO Varioskan Flash full-wavelength multifunctional microplate reader.
About 3×10^3 PC-12 cells were evenly mixed in 0.1 mL of DMEM medium containing 10% FBS, and plated on a 96-well bottom plate, and incubated overnight at 37° C. in an environment containing 5% CO2. The 20 μM and 50 μM compounds diluted in 0.1 mL of DMEM medium were treated on the cells for 24 hours. Then MTT reagent was added to the well plate, and the plate was incubated at 37° C. for 2 to 4 hours. The color reaction was measured at 492 nm using a spectrophotometer (Thermo, multiskan FC).

[1] = target: T1, eqBuChE (BuChE, E.C.3.1.1.8, selected from horse serum) (Equus caballus, UniProt P81908); experiment: Cholinesterase inhibitory activity (DTNB/BTC), eqBuChE; assay type: biochemical
T1 construct: BuChE (E.C.3.1.1.8, selected from horse serum); purchased Sigma; host or cells: horse serum
Description: Determination of Cholinesterase Inhibitory Activity:
Drugs and reagents: Test compounds, AChE (E.C.3.1.1.7, Type VI-S, selected from electric eel), BuChE (E.C.3.1.1.8, selected from horse serum), 5,5′-dithiobis(2-nitrobenzoic acid) (DTNB), acetylthiocholine (ATC) iodide and butyrylthiocholine (BTC) iodide were all purchased from Sigma; the positive control tacrine hydrochloride (9-amino-1,2,3,4-tetrahydroacridine hydrochloride hydrate) was purchased from BioTrend.
as §1
(1) Formulation of buffer: 13.6 g of potassium dihydrogen phosphate was dissolved in 1 L of water, and pH was adjusted with potassium hydroxide to reach pH=8±0.1. The solution was stored at 4° C. for later use.
(2) Formulation of 0.01 M DTNB solution: 0.396 g of DTNB and 0.15 g of sodium bicarbonate were dissolved in 100 mL of water to prepare a 0.01 M DTNB solution, which was stored at −30° C. for later use.
(3) Formulation of 0.075 M ATC and BTC solutions: 0.217 g of ATC was dissolved in 10 mL of water to prepare a 0.075 M ATC solution, which was stored at −30° C. for later use; 0.237 g of BTC was dissolved in 10 mL of water to prepare a 0.075 M BTC solution, which was stored at −30° C. for later use.
(4) Formulation of AChE and BuChE solutions: 5,000 units of AChE were dissolved in 1 mL of 1% gel solution, and then diluted to 100 mL with water to prepare a AChE solution with a concentration of 5 units/mL, which was stored at −30° C. for later use; 5,000 units of BuChE were dissolved in 1 mL of 1% gel solution, and then diluted to 100 mL with water to prepare a BuChE solution with a concentration of 5 units/mL, which was stored at −30° C. for later use.
(5) Formulation of test substance solution: The test compound was dissolved in ethanol to obtain a solution with a concentration of 10^−3 M (ethanol would not affect the test results), and then diluted with water to prepare solutions with concentrations of […], 10^−5, 10^−6, 10^−7, 10^−8, 10^−9, and 10^−10 M, respectively.
Before the start of the experiment, all the solutions as used were warmed to room temperature, and the AChE and BuChE solutions were diluted 1-fold with water to prepare an enzyme solution with a concentration of 2.5 units/mL. The background UV absorbance was measured with a blank buffer (3 mL) as a subtraction value. Firstly, 100 μL of test compound solution, 100 μL of DTNB solution, and 100 μL of enzyme solution were added to 3 mL of buffer. After adding 20 μL of ATC or BTC solution to trigger the reaction, the time was recorded immediately and the test solution was mixted quickly and uniformly at the same time. After 2 minutes, the UV absorbance was measured at a wavelength of […]. The blank control group was measured with an equal volume of water instead of the test substance solution. All tests were performed three times in parallel. The UV absorption value of the blank control group was taken as 100%, the absorbance (OD value) of the test compound at each concentration was recorded, and GraphPad Prism™ (GraphPad Software, San Diego, CA, USA) software was used to analyze the results in a non-linear regression analysis model to calculate the corresponding IC50 values, as shown in Table 1.

hBuChE = hBuChE (Homo sapiens, UniProt P06276); experiment: Cholinesterase inhibitory activity (DTNB/BTC), hBuChE; assay type: biochemical; conditions: mean ± SEM
[2] = read-out: IC50 (nM) ± SEM eqBuChE
[3] = eqBuChE, mean ± SEM, three parallel tests

T1 sequence (P81908 whole entry): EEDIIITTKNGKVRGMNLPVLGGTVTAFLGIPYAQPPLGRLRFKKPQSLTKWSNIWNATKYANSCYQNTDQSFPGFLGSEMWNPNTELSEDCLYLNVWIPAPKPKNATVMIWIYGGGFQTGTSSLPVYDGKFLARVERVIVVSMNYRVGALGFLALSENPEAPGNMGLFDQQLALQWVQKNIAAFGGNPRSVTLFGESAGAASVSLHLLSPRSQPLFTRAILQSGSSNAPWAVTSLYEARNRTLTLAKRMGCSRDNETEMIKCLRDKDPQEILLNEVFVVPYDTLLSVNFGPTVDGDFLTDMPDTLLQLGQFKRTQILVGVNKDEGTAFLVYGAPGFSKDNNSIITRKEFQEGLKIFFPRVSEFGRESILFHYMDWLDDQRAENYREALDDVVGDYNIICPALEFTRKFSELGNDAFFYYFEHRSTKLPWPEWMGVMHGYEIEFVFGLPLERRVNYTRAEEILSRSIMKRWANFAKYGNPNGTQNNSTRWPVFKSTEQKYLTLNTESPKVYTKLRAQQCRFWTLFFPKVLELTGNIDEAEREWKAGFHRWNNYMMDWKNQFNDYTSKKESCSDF

Compound	SR(%) cell survival rate, 20 μM (PC-12 neural cell line) [%]	SR(%) cell survival rate, 50 μM (PC-12 neural cell line) [%]	IC50 [1, 2] [nM]	IC50 (hBuChE) [nM]	IC50 [1, 3] [nM]
CCN(CC)Cc1cccc(CNC(=O)c2cccc(NC(=O)c3cccs3)c2)c1 [Compound 37, N-(3-((3-((diethylamino)methyl)benzyl)carbamoyl)phenyl)thiophene-2-carboxamide]	92.05	82.03	12.6 ± 0.86	32.9 ± 15.7	–
CCN(CC)Cc1ccccc1CNC(=O)c1cccc(NC(=O)c2ccc(Br)cc2)c1 [Compound 20, 3-(4-bromobenzamido)-N-(2-((diethylamino)methyl)benzyl)benzamide]	94.00	85.21	0.98 ± 0.62	1.91 ± 0.59	–
CCN(CC)Cc1ccccc1CNC(=O)c1cccc(NC(=O)c2ccc(C#N)cc2)c1 [Compound 31, 3-(4-cyanobenzamido)-N-(2-((diethylamino)methyl)benzyl)benzamide]	94.67	91.59	15.8 ± 2.84	16.5 ± 15.1	–
CCN(CC)Cc1ccccc1CNC(=O)c1cccc(NC(=O)c2ncc[nH]2)c1 [Compound 9, N-(3-((2-((diethylamino)methyl)benzyl)carbamoyl)phenyl)-imidazole-2-carboxamide]	80.36	70.74	0.52 ± 0.1	1.91 ± 0.24	–
CCN(CC)Cc1ccccc1CNC(=O)c1cccc(NC(=O)c2ccccc2OC)c1 [Compound 28]	95.42	85.46	5.28 ± 1.21	20 ± 2.06	–
CCN(CC)Cc1ccccc1CNC(=O)c1cccc(NC(=O)c2ccc(O)cc2)c1 [Compound 12, N-(2-((diethylamino)methyl)benzyl)-3-(4-hydroxybenzamido)benzamide]	91.46	89.64	0.79 ± 0.19	2.45 ± 0.37	–
CCN(CC)Cc1ccccc1CNC(=O)c1cccc(NC(=O)c2ccc(Cl)cc2)c1 [Compound 19, 3-(4-chlorobenzamido)-N-(2-((diethylamino)methyl)benzyl)benzamide]	90.43	79.24	0.34 ± 0.21	0.83 ± 0.39	–
CCN(CC)Cc1ccc(CNC(=O)c2cccc(NC(=O)c3cccs3)c2)cc1 [Compound 38, N-(3-((4-((diethylamino)methyl)benzyl)carbamoyl)phenyl)thiophene-2-carboxamide]	93.67	84.23	24.7 ± 10.6	75 ± 22.9	–
CCN(CC)Cc1ccccc1CNC(=O)c1cccc(NC(=O)c2ccccn2)c1 [Compound 7, N-(3-((2-((diethylamino)methyl)benzyl)carbamoyl)phenyl)-pyridineamide]	92.36	75.46	0.34 ± 0.02	0.78 ± 0.63	–
CCN(CC)Cc1ccccc1CNC(=O)c1cccc(NC(=O)c2ccccc2F)c1 [Compound 18, N-(3-((2-((diethylamino)methyl)benzyl)carbamoyl)phenyl)-2-fluorobenzamide]	80.26	73.56	3.5 ± 1.1	17.4 ± 1.98	–
CCN(CC)Cc1ccccc1CNC(=O)c1cccc(NC(=O)c2ccc[nH]2)c1 [Compound 5, N-(3-((2-((diethylamino)methyl)benzyl)carbamoyl)phenyl)-pyrrole-2-carboxamide]	97.53	92.47	0.87 ± 0.03	2.99 ± 0.67	–
CCN(CC)Cc1ccccc1CNC(=O)c1cccc(NC(=O)c2ccc(OC)cc2)c1 [Compound 26]	97.20	82.25	–	1.04 ± 0.52	0.55 ± 0.09
CCN(CC)Cc1ccccc1CNC(=O)c1cccc(NC(=O)c2cccc(F)c2)c1 [Compound 17, N-(2-((diethylamino)methyl)benzyl)-3-(3-fluorobenzamido)benzamide]	98.40	89.75	–	25.2 ± 19.1	4.55 ± 0.74
CCCN(CCC)Cc1ccccc1CNC(=O)c1cccc(NC(=O)c2cccs2)c1 [Compound 35, N-(3-((2-((dipropylamino)methyl)benzyl)carbamoyl)phenyl)thiophene-2-carboxamide]	92.58	84.86	–	0.89 ± 0.67	0.45 ± 0.04
CCN(CC)Cc1ccccc1CNC(=O)c1cccc(NC(=O)c2cccs2)c1 [Compound 1, N-(3-((2-((diethylamino)methyl)benzyl)carbamoyl)phenyl)thiophene-2-carboxamide]	97.36	84.34	–	0.42 ± 0.07	0.13 ± 0.01
